The record followed here is US12275685B2, “Oligo-benzamide analogs and their use in cancer treatment” (Board of Regents, The University of Texas System, priority 2018, dated 2025).

Data set [1] has as its system triple-negative breast cancer cells (TNBC). The experiment in a line: Growth inhibition of TNBC cells. In kind it is cell-based. The source says:
FIGS. 10A & 10B show effects of TK208 against cancer cells.
TNBC is difficult to be treated and currently there are no good drugs available in the market.
In addition, another tris-benzmaide compound TK208 was synthesized and tested against breast cancer and ovarian cancer cell lines (FIGS. 10-15). […] These compounds (e.g., TK41, TK208, TK308 (FIG. 21), TK309 (FIG. 22), TK314, TK315) are extremely potent compounds that inhibit tumor growth and kill breast and ovarian cancer cells and as such, they are superb therapeutic candidates for such diseases.

The subject of data set [2] is MDA-MB-231 TNBC xenografts. The experiment in a line: MDA-MB-231 TNBC xenografts. In kind it is in vivo, mice. To be noted: oral 10 mg/kg/day. As for the experimental part:
FIGS. 5A-5C show the effect of TK41 on triple negative breast cancer xenograft tumors. MDA-MB-231 (TNBC; n=10) xenografts were established in nude mice and treated with either vehicle (circle markers) or 10 mg/kg/day TK41 (square markers) administered as an oral gavage in Captisol®. Comparison of mice body weights is shown in bar graphs (FIG. 5A). Photographs of individual tumors at necropsy supports the effect of TK41 on TNBC. *p<0.05; **** p<0.001.
FIGS. 35A-P: ERX-41 is potent against TNBC in vivo. (FIG. 35A) Following establishment of subcutaneous MDA-MB-231 xenograft tumors (200 mm^3), 10 mg/kg single dose ERX-41 was administered either by oral or intraperitoneal route. The tumor was harvested 0, 0, 5, 1, 5, 3, 6 and 24 h after drug administration and the drug levels assayed by LC-MS/MS and graphed. (FIGS. 35B-E) Following establishment of MDA-MB-231 xenografts in mammary fat pad in vivo (100 mm^3 size), daily administration of 10 mg/kg ERX-41 or vehicle control (N=8 each group) was initiated. Tumor volumes were measured using digital calipers and graphed (FIG. 35B). Tumor weights (FIG. 35C), body weights (FIG. 35D) and extirpated tumors (FIG. 35E) at end of study are also shown. […] Tumor volumes were measured using digital calipers and graphed (FIG. 35F) along with tumor weights (FIG. 35G) and body weights (FIG. 35H). […]

Data set [3] concerns parental SUM-159 xenografts. The experiment in a line: Parental SUM-159 xenografts. To be noted: 10 mg/kg daily. In kind it is in vivo, SCID mice. The source says: FIGS. 37A-J: The molecular target of ERX-41 in TNBC is LIPA. […] (FIG. 37B) Knockout clones of LIPA, ACACA, TMEM208, SOAT1 and ARID1A were generated in MDA-MB-231 cells and evaluated for response to ERX-41 using doseresponse curves using CellTiter-Glo assays in vitro. (FIGS. 37C-D) Effect of knockout of LIPA in SUM-159 (FIG. 37C) and MDA-MB436 (FIG. 37D) on dose response curve to ERX-41 using CellTiter-Glo assays in vitro. (FIGS. 37E-F) Dose response curves of SUM-159 parental cells and clones with LIPA KO to thapsigargin (FIG. 37E) and paclitaxel (FIG. 37F). (FIGS. 37G-H) Live cell imaging studies with SYTOX Green to examine ability of 1 μM ERX-41 to induce cell death in parental SUM-159 and SUM-159 clones with LIPA KO, with quantitation (FIG. 37G) and time-lapsed photomicrographs at 0 h and 30 h ((FIG. 37H). (FIGS. 37I-J) SCID mice were implanted with either parental SUM-159 or SUM-159 clones with LIPA KO (n=6, each group) and tumors were allowed to establish (150 mm^3). Following daily intraperitoneal administration of 10 mg/kg ERX-41, tumor sizes were measured and graphed (FIG. 37I), along with mice body weights (FIG. 37J). *p<0.05. **p<0.01; ***p<0.001.
The molecular target of ERX-41 in TNBC is LIPA. […] Knockout clones of LIPA, SLC5A3, SMAP2, TMEM208, SOAT1 and ARID1A were generated in multiple TNBC cells and evaluated for response to ERX-41.

Each structure is given as a SMILES string.

`CC(C)COc1cc(C(=O)Nc2ccc(C(=O)N[C@H]3CC[C@H](C)CC3)cc2OCC(C)C)ccc1NC(=O)c1ccc([N+](=O)[O-])c(OCCO)c1` [TK41] gave an IC50 in data set [1] of under 100 nM. In data set [2], the “growth of MDA-MB-231 xenografts” value is on record as “significantly decreased the growth” and the mouse body weights result was “no alterations in mouse body weights”. Further, the “response of parental SUM-159 xenografts” value in data set [3] was “responded significantly”.
